Assay [1] addresses TEAD1(210-426) binding to YAP(50-100) (Homo sapiens, UniProt P28347). Nature of the assay: TR-FRET Assay for TEAD1(210-426) Binding to YAP(50-100). The settings on record: His-TEAD 10 nM, YAP-Biotin peptide 50 nM. As for the experimental part:
Compounds were performed 3 fold serial dilution, 12 data points, added to 384 well white plate. The final DMSO concentration is 1%, duplicate for each concentration. Then His-TEAD protein was added to a final concentration of 10 nM, and allowed to preincubate for 30 minutes at room temperature. Assay buffer was added as background control.
YAP-Biotin peptide was added to a final concentration of 50 nM, mixed well, incubate 10 minutes at room temperature. The YAP(50-100) peptide sequence used here is named SEQ ID NO: 2
The Europium-labeled anti-6×His antibody and APC labeled streptavidin were diluted according to the instructions, this detection solution was mixed 1:1 with reaction solution, incubated 1 hour at room temperature.
TR-FRET measurements were made on an Envision (Perkin Elmer), using an excitation wavelength of 320 nm and emissions read at 620 nm and 665 nm. The ratio of the 665 nm to the 620 nm multiply 10000 provides a normalized TR-FRET signal that represents the extent of binding.
Half inhibition concentration IC50 value was calculated by XLfit software.
Background: Time-resolved FRET reads energy transfer from a long-lived donor to a nearby acceptor.

The next assay relates to MSTO-211H cells. Description: Proliferation Assay (CellTiter-Glo Luminescent Cell Viability Assay). It is filed as cell-based. The settings on record: Homo sapiens, 96 hours treatment. As for the experimental part: Example 5: Proliferation Assay
The effect of compound on YAP driven cancer cells proliferation was assessed in MSTO-211H (ATCC, CRL-2081TM) or NCI-H2052 (ATCC, CRL-5915TM) cells using CellTiter-Glo Luminescent Cell Viability Assay (Promega, G7570).
Briefly, individual cell lines were seeded in 96-well cell culture plate at the density of 1,500 cells per well and cultured in RPMII1640 (Gibco-A10491-01)+10% FBS (Gibco-10099-141C)+1% Penicillin-Streptomycin (5,000 U/mL, Gibco-15070-063) overnight at 37° C. with 5% CO2 before adding the compounds.
Following incubation, serial dilutions of compounds dissolved in DMSO were added to each well (3-fold dilution with 9 concentration points). The final concentration of DMSO present in this assay is below 0.5% and make duplication for each compound treated well.
Following 96 hours treatment, compound mediated cell growth inhibition was measured using CellTiter-Go Luminescent Cell Viability Assay (Promega, G7570). […] CellTiter-Glo in each assay well, mix and incubate at room temperature for 10 min. Read signal using EnVision® Multilabel Plate Reader (Perkin Elmer).
For data analysis, cell proliferation inhibition was calculated using the following formula:
Inhibition %=(1−(Compound treated well CTG signal/DMSO well CTG signal))*100.
IC50 values were calculated using GraphPad Prism software using a four-parameter fit model.
(In ATP-based viability assays light output follows the ATP content of the culture.)

Chain of TEAD1(210-426) binding to YAP(50-100) (P28347 209-426): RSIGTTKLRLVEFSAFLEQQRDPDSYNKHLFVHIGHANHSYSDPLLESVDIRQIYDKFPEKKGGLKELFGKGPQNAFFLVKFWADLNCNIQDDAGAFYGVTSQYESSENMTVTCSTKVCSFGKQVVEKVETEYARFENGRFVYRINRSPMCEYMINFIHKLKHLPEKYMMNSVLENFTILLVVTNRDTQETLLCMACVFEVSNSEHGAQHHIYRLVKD

Take `Cn1nccc1Cn1ccc(-c2nn(-c3ccc(C(F)(F)F)cc3)c3ccccc23)cc1=O` [Compound 37, 1-((1-methyl-1 H-pyrazol-5-yl)methyl)-4-(1-(4-(trifluoromethyl)phenyl)-1H-indazol-3-yl)pyridin-2(1H)-one]: the values for the IC50 (in assay [1]; with MSTO-211H cells) were at most 100 nM and at most 1000 nM, respectively.

With `Cn1ccc(Cn2ccc(-c3nn(-c4ccc(C(F)(F)F)cc4)c4ccccc34)cc2=O)n1` [Compound 38, 1-((1-methyl-1H-pyrazol-3-yl)methyl)-4-(1-(4-(trifluoromethyl)phenyl)-1H-indazol-3-yl)pyridin-2(1H)-one], the IC50 is at most 100 nM in assay [1] and at most 1000 nM in the assay with MSTO-211H cells.

Regarding `Cn1cncc1Cn1ccc(-c2nn(-c3ccc(C(F)(F)F)cc3)c3ccccc23)cc1=O` [Compound 39, 1-((1-methyl-1H-imidazol-5-yl)methyl)-4-(1-(4-(trifluoromethyl)phenyl)-1H-indazol-3-yl)pyridin-2(1H)-one], the IC50 in assay [1] was over 1000 nM; in the assay on MSTO-211H cells, at most 1000 nM.

For the compound `C[C@@H](c1ccccn1)n1ccc(-c2nn(-c3ccc(C(F)(F)F)nc3)c3cccnc23)cc1=O` [Compound 40, (S)-1-(1-(pyridin-2-yl)ethyl)-4-(1-(6-(trifluoromethyl)pyridin-3-yl)-1H-pyrazolo[4,3-b]pyridin-3-yl)pyridin-2(1H)-one], the figures for the IC50 (in assay [1]; in the assay on MSTO-211H cells) were over 1000 nM and at most 1000 nM, respectively.

With `Cn1ccc(Cn2ccc(-n3nc(-c4ccc(C(F)(F)F)cc4)c4ncccc43)cc2=O)n1` [Compound 41, 1-((1-methyl-1H-pyrazol-3-yl)methyl)-4-(3-(4-(trifluoromethyl)phenyl)-1H-pyrazolo[4,3-b]pyridin-1-yl)pyridin-2(1H)-one], the IC50 in assay [1] was at most 100 nM; in the assay with MSTO-211H cells it was at most 1000 nM.

With `CNc1nccc(Cn2ccc(-n3nc(-c4ccc(C(F)(F)F)cc4)c4ncccc43)cc2=O)n1` [Compound 42, 1-((2-(methylamino)pyrimidin-4-yl)methyl)-4-(3-(4-(trifluoromethyl)phenyl)-1H-pyrazolo[4,3-b]pyridin-1-yl)pyridin-2(1H)-one], the IC50 in assay [1] was at most 100 nM; in the assay on MSTO-211H cells, at most 1000 nM.

For `Cn1ccnc1Cn1ccc(-n2nc(-c3ccc(C(F)(F)F)cc3)c3ncccc32)cc1=O` [Compound 43, 1-((1-methyl-1H-imidazol-2-yl)methyl)-4-(3-(4-(trifluoromethyl)phenyl)-1H-pyrazolo[4,3-b]pyridin-1-yl)pyridin-2(1H)-one], the IC50 in assay [1] is 100 to 1000 nM; in the assay on MSTO-211H cells, at most 1000 nM.

With `O=c1cc(-c2nn(-c3ccc(C(F)(F)F)cc3)c3ncccc23)ccn1Cc1ccnc(NC2CC2)n1` [Compound 44, 1-((2-(cyclopropylamino)pyrimidin-4-yl)methyl)-4-(1-(4-(trifluoromethyl)phenyl)-1H-pyrazolo[3,4-b]pyridin-3-yl)pyridin-2(1H)-one], the IC50 is at most 100 nM in assay [1] and at most 1000 nM in the assay with MSTO-211H cells.

Take `O=c1cc(-n2nc(-c3ccc(C(F)(F)F)cc3)c3ncccc32)ccn1Cc1ccn(CCO)n1` [Compound 45]: the IC50 is at most 100 nM in assay [1] and at most 1000 nM with MSTO-211H cells.

Regarding `O=c1cc(-n2nc(-c3ccc(C(F)(F)F)cc3)c3ncccc32)ccn1Cc1ccnc(NCCO)n1` [Compound 46, 1-((2-((2-hydroxyethyl)amino)pyrimidin-4-yl)methyl)-4-(3-(4-(trifluoromethyl)phenyl)-1H-pyrazolo[4,3-b]pyridin-1-yl)pyridin-2(1H)-one], the half-inhibitory concentration (IC50) in assay [1] is at most 100 nM; with MSTO-211H cells it was at most 1000 nM.

For `CN(CCO)c1nccc(Cn2ccc(-n3nc(-c4ccc(C(F)(F)F)cc4)c4ncccc43)cc2=O)n1` [Compound 47, 1-((2-((2-hydroxyethyl)(methyl)amino)pyrimidin-4-yl)methyl)-4-(3-(4-(trifluoromethyl)phenyl)-1H-pyrazolo[4,3-b]pyridin-1-yl)pyridin-2(1H)-one], the IC50 was at most 100 nM in assay [1] and at most 1000 nM in the assay on MSTO-211H cells.

As for `CNc1ccnc(Cn2ccc(-n3nc(-c4ccc(C(F)(F)F)cc4)c4ncccc43)cc2=O)n1` [Compound 48, 1-((4-(methylamino)pyrimidin-2-yl)methyl)-4-(3-(4-(trifluoromethyl)phenyl)-1H-pyrazolo[4,3-b]pyridin-1-yl)pyridin-2(1H)-one], the results for the IC50 (in assay [1]; in the assay on MSTO-211H cells) were at most 100 nM and at most 1000 nM, respectively.

As for `CNc1ccnc(Cn2ccc(-n3nc(-c4ccc(C(F)(F)F)cc4)c4nccnc43)cc2=O)n1` [Compound 49, 1-((4-(methylamino)pyrimidin-2-yl)methyl)-4-(3-(4-(trifluoromethyl)phenyl)-1H-pyrazolo[3,4-b]pyrazin-1-yl)pyridin-2(1H)-one], the IC50 in assay [1] was at most 100 nM; in the assay with MSTO-211H cells, at most 1000 nM.

Turning to `O=c1cc(-n2nc(-c3ccc(C(F)(F)F)cc3)c3nccnc32)ccn1Cc1ccnc(NCCO)n1` [Compound 50, 1-((2-((2-hydroxyethyl)amino)pyrimidin-4-yl)methyl)-4-(3-(4-(trifluoromethyl)phenyl)-1H-pyrazolo[3,4-b]pyrazin-1-yl)pyridin-2(1H)-one], the IC50 is at most 100 nM in assay [1] and at most 1000 nM with MSTO-211H cells.

On to `CNc1nccc(Cn2ccc(-n3nc(-c4ccc(C(F)(F)F)cc4)c4nccnc43)cc2=O)n1` [Compound 51, 1-((2-(methylamino)pyrimidin-4-yl)methyl)-4-(3-(4-(trifluoromethyl)phenyl)-1H-pyrazolo[3,4-b]pyrazin-1-yl)pyridin-2(1H)-one], for which the IC50 in assay [1] was at most 100 nM; with MSTO-211H cells, at most 1000 nM.

Consider `CN(CCO)c1nccc(Cn2ccc(-n3nc(-c4ccc(C(F)(F)F)cc4)c4nccnc43)cc2=O)n1` [Compound 52, 1-((2-((2-hydroxyethyl)(methyl)amino)pyrimidin-4-yl)methyl)-4-(3-(4-(trifluoromethyl)phenyl)-1H-pyrazolo[3,4-b]pyrazin-1-yl)pyridin-2(1H)-one], for which the IC50 is at most 100 nM in assay [1] and at most 1000 nM in the assay with MSTO-211H cells.

On to `CNc1ccnc(Cn2ccc(-c3nn(-c4ccc(C(F)(F)F)cc4)c4cc(F)ccc34)cc2=O)n1` [Compound 53, 4-(6-fluoro-1-(4-(trifluoromethyl)phenyl)-1H-indazol-3-yl)-1-((4-(methylamino)pyrimidin-2-yl)methyl)pyridin-2(1H)-one], for which the IC50 in assay [1] was at most 100 nM; in the assay with MSTO-211H cells it was at most 1000 nM.

As to `CNc1ccnc(Cn2ccc(-c3nn(-c4ccc(C(F)(F)F)cc4)c4ccc(F)cc34)cc2=O)n1` [Compound 54, 4-(5-fluoro-1-(4-(trifluoromethyl)phenyl)-1H-indazol-3-yl)-1-((4-(methylamino)pyrimidin-2-yl)methyl)pyridin-2(1H)-one], the IC50 in assay [1] was at most 100 nM; in the assay with MSTO-211H cells, at most 1000 nM.

Regarding `O=c1cc(-c2nn(-c3ccc(C(F)(F)F)cc3)c3ccccc23)ccn1Cc1nccc(N2CC[C@H](O)C2)n1` [Compound 55, (S)-1-((4-(3-hydroxypyrrolidin-1-yl)pyrimidin-2-yl)methyl)-4-(1-(4-(trifluoromethyl)phenyl)-1H-indazol-3-yl)pyridin-2(1H)-one], the IC50 in assay [1] is at most 100 nM; in the assay with MSTO-211H cells it was at most 1000 nM.

As for `O=c1cc(-n2nc(-c3ccc(C(F)(F)F)cc3)c3ncccc32)ccn1Cc1ccnc(OCCO)n1` [Compound 56, 1-((2-(2-hydroxyethoxy)pyrimidin-4-yl)methyl)-4-(3-(4-(trifluoromethyl)phenyl)-1H-pyrazolo[4,3-b]pyridin-1-yl)pyridin-2(1H)-one], the IC50 in assay [1] was at most 100 nM; in the assay with MSTO-211H cells, at most 1000 nM.

`CNc1nccc(Cn2ccc(-c3nn(-c4ccc(C(F)(F)F)cc4C)c4ncccc34)cc2=O)n1` [Compound 57]: the IC50 in assay [1] was at most 100 nM; in the assay on MSTO-211H cells, at most 1000 nM.

Take `CNc1nccc(Cn2ccc(-c3nn(-c4ccc(F)cc4)c4ncccc34)cc2=O)n1` [Compound 58, 4-(1-(4-fluorophenyl)-1H-pyrazolo[3,4-b]pyridin-3-yl)-1-((2-(methylamino)pyrimidin-4-yl)methyl) pyridin-2(1H)-one]: the values for the IC50 (in assay [1]; in the assay with MSTO-211H cells) were at most 100 nM and at most 1000 nM, respectively.

Regarding `CNc1nccc(Cn2ccc(-c3nn(-c4ccc(OC(F)(F)F)cc4)c4ncccc34)cc2=O)n1` [Compound 59, 1-((2-(methylamino)pyrimidin-4-yl)methyl)-4-(1-(4-(trifluoromethoxy)phenyl)-1H-pyrazolo[3,4-b]pyridin-3-yl) pyridin-2(1H)-one], the IC50 in assay [1] was at most 100 nM; in the assay on MSTO-211H cells, at most 1000 nM.

The IC50 is the concentration that gives 50% inhibition.
